The subject of this experiment is thromboplastin clotting time in human plasma. The experiment can be described thus: prothrombin time test (thromboplastin clotting time in human plasma). It counts as biochemical. Conditions: 37° C., human plasma. The protocol:
Briefly, to 0.1 ml of each of human plasma, normal saline and thromboplastin was added 0.03 ml of the test compound of the present invention (2 mg/ml in 50 percent methanol). The clotting time was measured at 37° C. with a Fibrometer.
^a Expressed in seconds
^b Concentration of compound tested in micrograms per milliliter of […]

The mark [1] stands for this setting: 45 micrograms per milliliter of plasma.
Where [2] appears, read: 90 micrograms per milliliter of plasma.
[3] abbreviates: 180 micrograms per milliliter of plasma.
Setting [4] is: 11 micrograms per milliliter of plasma.
The mark [5] stands for this setting: 22 micrograms per milliliter of plasma.
Setting [6] is: 45 micrograms per milliliter of plasma, hydrochloride.
Where [7] appears, read: 90 micrograms per milliliter of plasma, hydrochloride.
[8] abbreviates: 11 micrograms per milliliter of plasma, hydrochloride.
The mark [9] stands for this setting: 22 micrograms per milliliter of plasma, hydrochloride.

Counter-ions that a name gives are not always drawn.

Turning to `CCCCCCCOc1ccc(CC(CN)c2ccc(OC)c(OC)c2)cc1` (stereo not drawn) [Example 20, 4-(Heptyloxy)-β-(3,4-dimethoxy)phenylbenzenepropanamine], the plasma prothrombin time runs as follows: under setting [1], 36 s; under setting [2], 74 s; under setting [3], above 200 s.
Taken in the same sequence, the figures for `COc1ccc(C(CN)Cc2ccc(-c3ccccc3)cc2)cc1OC` (stereo not drawn) [Example 8, β-(3,4-Dimethoxy)phenyl[1,1'-biphenyl]-4-propanamine hydrochloride] were 23 s, 45 s and 130 s.
Taken in the same sequence, the figures for `CCCCCCCCCOc1ccc(CCC(C)NCCN2CCOCC2)cc1` (stereo not drawn) [Example 53, N-[1-Methyl-3-[4-(nonyloxy)phenyl]propyl]-4-morpholineethanamine dihydrochloride] were 23 s, 53 s and 240 s.
Taken in the same sequence, the figures for `COc1ccc(C(CN)Cc2cccc3ccccc23)cc1` (stereo not drawn) [Example 24, β-(4-Methoxy)phenyl-1-naphthalenepropanamine] were 22 s, 28 s and 48 s.
Consider `CCCCOc1ccc(CCC(C)N2CCCC2)cc1.Cl` (stereo not drawn) [Example 77, 1-[3-[4-(Butoxy)phenyl]-1-methylpropyl]-pyrrolidine hydrochloride], for which the plasma prothrombin time came to 15 s under setting [4]; 16 s under setting [5]; 23 s under setting [1]; 24 s under setting [2]; 53 s under setting [3].
With `CCCCCCCOc1ccc(CC(CN)c2ccccc2)cc1.Cl` (stereo not drawn) [Example 5, 4-(Heptyloxy)-β-phenylbenzenepropanamine hydrochloride], the plasma prothrombin time was 25 s under setting [1], 53 s under setting [2] and 190 s under setting [3].
On the same counts, the results for `CCCCOc1ccc(CC(C)CN(C)C)cc1.Cl` (stereo not drawn) [Example 78, 4-Butoxy-N,N,β-trimethylbenzenepropanamine hydrochloride] are 23 s, 31 s and 67 s.
For the molecule `CC(CCc1ccc(OCc2ccc(F)cc2)cc1)N(C)C.Cl` (stereo not drawn) [Example 82, 4-[(4-Fluorophenyl)methoxy]-N,N,α-trimethylbenzenepropanamine hydrochloride], the plasma prothrombin time was 18 s under setting [4]; 19 s under setting [5]; 24 s under setting [1]; 29 s under setting [2]; 75 s under setting [3].
Under setting [3], `CCCCCCCOc1ccc(CC(CN)c2ccc(C(CN)Cc3ccc(OCCCCCCC)cc3)cc2)cc1.Cl.Cl` (stereo not drawn) [Example 13, β,β'-Bis[[4-(heptyloxy)phenyl]methyl]-1,4-benzenediethanamine dihydrochloride] displayed a plasma prothrombin time of 200 s.
As to `NCC(Cc1ccc(C(F)(F)F)cc1)c1ccccc1` (stereo not drawn) [Example 35, β-Phenyl-4-(trifluoromethyl)benzenepropanamine], under setting [3], the plasma prothrombin time amounted to 68 s.
Regarding `CC(CCc1ccc(OCC2CCCC2)cc1)N(C)C` (stereo not drawn) [Example 80, 4-Cyclopentylmethoxy-N,N-α-trimethylbenzenepropanamine hydrochloride], the plasma prothrombin time is, setting by setting: under setting [4], 17 s; under setting [5], 19 s; under setting [6], 24 s; under setting [7], 43 s; (180 micrograms per milliliter of plasma, hydrochloride) 88 s.
Turning to `COc1ccc(C(CN)Cc2ccc(-c3ccccc3)cc2)cc1` (stereo not drawn) [Example 9, β-(4-Methoxy)phenyl[1,1'-biphenyl]-4-propanamine], the plasma prothrombin time under setting [3] is 25 s.
The molecule `CC(CCc1ccc(OCCC(C)(C)C)cc1)N(C)C.Cl` (stereo not drawn) [Example 79, 4-(3,3-Dimethylbutoxy)-N,N,α-trimethylbenzenepropanamine hydrochloride] yielded a plasma prothrombin time under setting [8] of 19 s; a plasma prothrombin time under setting [9] of 21 s; a plasma prothrombin time under setting [6] of 31 s; a plasma prothrombin time under setting [7] of 55 s; a plasma prothrombin time under setting [3] of 90 s.
`CCCCCCCCOc1ccc(CC(CN)c2ccc(-c3ccccc3)cc2)cc1` (racemic) [Example 11, (±)-β-[[4-(Octyloxy)phenyl]methyl][1,1'-biphenyl-4-ethanamine hydrochloride]: under setting [3], the plasma prothrombin time is 20 s.
The same measure, in the same setting: next, `CCCCCCCCOc1ccc(CC(CN)c2cc(OC)c(OC)c(OC)c2)cc1` (stereo not drawn) [Example 18, 4-(Octyloxy)-β-(3,4,5-trimethoxy)phenylbenzenepropanamine hydrochloride]: 125 s.
Turning to `CCCCCCCCCOc1ccc(CCC(C)NCCN(C)C)cc1` (stereo not drawn) [Example 54, N,N-Dimethyl-N'-[1-methyl-3-[4-(nonyloxy)phenyl]propyl]-1,2-ethanediamine dihydrochloride], the plasma prothrombin time is 37 s under setting [1], 99 s under setting [2] and above 300 s under setting [3].
For the molecule `COc1cccc(C(CN)Cc2ccc3ccccc3c2)c1OC` (stereo not drawn) [Example 25, β-(2,3-Dimethoxyphenyl)-2-naphthalenepropanamine], the plasma prothrombin time by setting is: under setting [1], 22 s; under setting [2], 29 s; under setting [3], 50 s.
Consider `COCCOc1ccc(CCC(C)N(C)C)cc1.Cl` (stereo not drawn) [Example 76, 4-(2-Methoxyethoxy)-N,N,α-trimethylbenzenepropanamine hydrochloride], for which the plasma prothrombin time reads like this: under setting [1], 17 s; under setting [2], 17 s; under setting [3], 18 s.
`CC(CCc1ccc(OCCC(C)(C)C)cc1)N(C)C.Cl` (stereo not drawn) [Example 75, 4-(3,3-Dimethylbutoxy)-N,N,αtrimethylbenzenepropanamine hydrochloride]: the plasma prothrombin time came to 18 s under setting [8]; 23 s under setting [9]; 32 s under setting [6]; 52 s under setting [7]; 90 s under setting [3].
`Cl.NCC(Cc1ccc2c(c1)OCO2)c1ccccc1` (stereo not drawn) [Example 34, β-Phenyl-1,3-benzodioxole-5-propanamine hydrochloride] yielded a plasma prothrombin time under setting [3] of 21 s.
For `CCCCCCCCOc1ccc(CC(CN)c2ccc(OC)c(OC)c2)cc1` (stereo not drawn) [Example 17, 4-(Octyloxy)-β-(3,4-dimethoxy)phenylbezenenepropanamine hydrochloride], the plasma prothrombin time by setting is: under setting [5], 21 s; under setting [1], 48 s; under setting [2], 81 s; under setting [3], 240 s.
Take `CC(C)c1ccc(CC(CN)c2ccccc2)cc1.Cl` (stereo not drawn) [Example 14, 4-(1-Methylethyl)-β-phenylbenzenepropanamine hydrochloride]: under setting [3], the plasma prothrombin time came out at 101 s.
On to `NC(CCc1ccc(OCC2CCCCC2)cc1)C1CC1` (stereo not drawn) [Example 37, 4-(Cyclohexylmethoxy)-α-cyclopropylbenzenepropanamine hydrochloride], for which, under setting [4], the plasma prothrombin time turned out to be 22 s.
`CNCC(Cc1ccc2c(c1)OCO2)c1ccccc1.Cl` (stereo not drawn) [Example 33, N-Methyl-β-phenyl-1,3-benzodioxole-5-propanamine hydrochloride]: the plasma prothrombin time under setting [3] stood at 18 s.
As to `Cl.NCC(Cc1ccc(-c2ccccc2)cc1)c1ccccc1` (stereo not drawn) [Example 7, β-Phenyl[1,1'-biphenyl]-4-propanamine hydrochloride], the plasma prothrombin time under setting [5] is 25 s, the plasma prothrombin time under setting [1] was 36 s, the plasma prothrombin time under setting [2] came out at 200 s and the plasma prothrombin time under setting [3] was above 300 s.
As to `CCCCCCOc1ccc(CC(CNCCN(C)C)c2cc(OC)c(OC)c(OC)c2)cc1.Cl.Cl` (stereo not drawn) [Example 31, N'-[3-[4-(Hexyloxy)phenyl]-2-(3,4,5-trimethoxyphenyl)-propyl]-N,N-dimethyl-1,2-ethanediamine dihydrochloride], the plasma prothrombin time under setting [3] amounted to 150 s.
Under setting [3], `CCCCCCOc1ccc(CC(CNC(C)C)c2ccccc2)cc1.Cl` (stereo not drawn) [Example 30, N-Isopropyl-4-(hexyloxy)-β-phenylbenzenepropanamine hydrochloride] showed a plasma prothrombin time of 69 s.
Turning to `CCCCCCCCCCCCOc1ccc(CCC(C)NCCN(C)C)cc1` (stereo not drawn) [Example 52, N'-[3-[4-(Dodecyloxy)phenyl]-1-methylpropyl]-N,N-dimethyl-1,2-ethanediaminedihydrochloride], the plasma prothrombin time runs as follows: under setting [2], 20 s; under setting [3], 87 s.
The molecule `CCC(CCc1ccc(OCC2CCCCC2)cc1)N(C)C` (stereo not drawn) [Example 38, 4-(Cyclohexylmethoxy)-α-ethyl-N,N-dimethylbenzenepropanamine hydrochloride] came in with a plasma prothrombin time under setting [4] of 22 s.
Consider `CCCCCCOc1ccc(CC(CNCC)c2ccccc2)cc1` (stereo not drawn) [Example 28, N-Ethyl-4-(hexyloxy)-β-phenylbenzenepropanamine], for which the plasma prothrombin time reads like this: under setting [5], 17 s; under setting [1], 23 s; under setting [2], 35 s; under setting [3], 110 s.

The record behind these values is patent US5135955A, “Propanamine derivatives” (Eli Lilly and Company, priority 1989, dated 1992).
